We go through 60 compounds from the METLIN SMRT retention time set (Domingo-Almenara et al. 2019).

The structures appear in SMILES notation.

A short description of this series: gradient 5% acetonitrile 3 min, to 50% in 2 min, to 85% in 15 min, held 3 min, 100 µL/min. The settings on record: column: Zorbax Extend-C18 2.1 x 50 mm; eluents: water / acetonitrile, 0.1% formic acid. The essentials:
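Each retention time is based on an adduct peak selected computationally and verified by manual inspection. Measurements used HPLC–quadrupole time-of-flight mass spectrometry in positive and negative ionization mode on mixtures of ~100 pure standards. Chromatography ran on a Zorbax Extend-C18 column (2.1 × 50 mm, 1.8 μm) at 100 μL/min with water and acetonitrile, each containing 0.1% formic acid, and dead and dwell volumes of 40 μL and 900 μL.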
Compound `CCCNC(=O)N1CC(Oc2ccc(-c3nc(-c4ccccc4)no3)cc2)C1` had an RP-LC retention time of 861 s. In turn, `CC(C)(C)c1csc(-c2csc(S(=O)(=O)Nc3ccc(F)c(Cl)c3)c2)n1` came in with an RP-LC retention time of 1310 s.

For `Cc1ccccc1NC(=O)Cn1nc2nc(N3CCCC(C)C3)ccn2c1=O` (stereo not given), the RP-LC retention time came out at 798 s. Take `Cc1cc(NC(=O)Cn2nc3c4sc(N(C)C)nc4ncn3c2=O)ccc1Br`: the RP-LC retention time amounted to 778 s.

Compound `CC1=C(c2ccc(F)cc2)S(=O)(=O)N=C1N1CCCN(C(=O)c2ccc(C)s2)CC1` displayed an RP-LC retention time of 857 s. In the case of `O=C(Nc1ccc(Cl)cc1)C1CC(=O)N(CCc2c[nH]c3ccc(F)cc23)C1` (stereo not given), the RP-LC retention time came out at 857 s. Turning to `O=C(c1ccc2ccnc(N3CCN(c4ccc(F)cc4)CC3)c2c1)N1CCC2(CC1)OCCO2`, the RP-LC retention time came out at 724 s.

Take `Cc1ccc(S(=O)(=O)N2CCC(c3nc(C(=O)N4CCOCC4)c(C)o3)CC2)cc1C`: the RP-LC retention time is 870 s. Regarding `CCOC(=O)C1CCc2sc(NC(=O)CCn3cnc4ccccc4c3=O)nc21` (stereo not given), the RP-LC retention time worked out at 690 s.

`CC(=O)Nc1ccc(C2(C(=O)NCc3cccc(C)c3)CCC2)cc1` displayed an RP-LC retention time of 773 s. The compound `COc1ccc(OC)c(NC(=O)c2noc3c2CCCC3)c1` displayed an RP-LC retention time of 1160 s. Turning to `COc1cccc(CNC(=O)N2CCC(n3c(-c4ccco4)nc4cccnc43)C2)c1` (stereo not given), the RP-LC retention time turned out to be 712 s. In turn, `O=C(c1ccc2c(c1)OCO2)N1CCN(Cc2nnnn2-c2ccc(F)c(F)c2)CC1` showed an RP-LC retention time of 746 s. Compound `CSCc1csc(NC(=O)COc2ccc(Cl)cc2)n1` showed an RP-LC retention time of 883 s. On to `Oc1cccc(-c2nc3cnc(Br)cn3c2Nc2ccc3c(c2)OCCO3)c1`, for which the RP-LC retention time amounted to 794 s.

In the case of `COC(=O)c1ccc(NC(=O)CSc2nnc3c4cc(-c5ccccc5)nn4ccn23)cc1`, the RP-LC retention time was determined as 1060 s. With `COCC(=O)Nc1cc2c(cc1N1CCCCC1)n(C)c(=O)c(=O)n2C` the figure was 775 s; with `CCc1c(C2CCN(C(=O)c3ccn(CC)n3)CC2)noc1N`, 644 s. In turn, `COc1cccc(-n2cc(C(=O)Oc3cccnc3)c3ccccc3c2=O)c1` gave an RP-LC retention time of 926 s. Take `O=C1CCN(S(=O)(=O)c2ccccc2)CCCN(C(=O)Nc2ccc3c(c2)OCCO3)CCN1`: the RP-LC retention time is 701 s. In turn, `CC1CCN(Cc2csc(N3CCN(C(=O)c4ccc5c(c4)OCO5)CC3)n2)CC1` displayed an RP-LC retention time of 632 s. Under `O=C(NCC1CCCO1)C1CCCN(c2ncnc3c2oc2ccccc23)C1` (stereo not given) stands 656 s; under `CCn1ccc2sc(C)c(C(=O)NCc3cccc(C)c3)c2c1=O`, 850 s.

As to `O=C(NCc1ccc(-n2ccnc2)cc1)c1ccc(F)c(F)c1`, the RP-LC retention time was found to be 625 s. In turn, `Cc1cccc(NC(=O)N2CCc3nc(-c4ccccc4)ncc3C2)c1C` returned an RP-LC retention time of 901 s. The compound `O=C(Cc1cccc(F)c1)NC(c1ccccc1)c1nnc(N2CCCC2)o1` (stereo not given) displayed an RP-LC retention time of 771 s. The compound `Cc1nn(C2CCS(=O)(=O)C2)c2nc(-c3ccc(F)cc3)cc(C(=O)N3CCCC3)c12` (stereo not given) had an RP-LC retention time of 779 s.

Regarding `O=C(CSc1nnc2c3sc(N4CCCC4)nc3ncn12)Nc1ccc2c(c1)OCCO2`, the RP-LC retention time turned out to be 758 s. On to `CCn1cnnc1C1CCN(C(=O)c2sccc2C)CC1`, for which the RP-LC retention time was determined as 561 s. On to `CC(C)CN(C1CCOCC1)C1CN(C(=O)Nc2ccccc2)C1`, for which the RP-LC retention time was determined as 594 s. As for `CCN(CC(=O)N1CCC(C(N)=O)CC1)S(=O)(=O)c1ccc(F)cc1`, the RP-LC retention time was 635 s. In turn, `Cc1[nH]nc(-c2ccc(S(=O)(=O)NCCc3ccc(S(N)(=O)=O)cc3)o2)c1C` yielded an RP-LC retention time of 697 s. As to `O=C(N[C@H]1C[C@@H]2C[C@H]1N(C(=O)c1ccc(Cl)s1)C2)c1cccs1`, the RP-LC retention time turned out to be 850 s.

In turn, `O=C(O)c1cccc(Nc2c(-c3cccc(Cl)c3)nc3cnccn23)c1` yielded an RP-LC retention time of 737 s. Under `O=C(Cc1cccs1)N1CCN(c2cnn3cnnc3c2)CC1` stands 585 s; under `O=C(CSc1nnc(-c2cccnc2)o1)c1ccc(OC(F)F)cc1`, 780 s. Compound `Cc1noc2ncnc(N3CCC(C(=O)NCCCN4CCCCC4C)CC3)c12` (stereo not given) returned an RP-LC retention time of 587 s. `CCN1CCN(C(=O)C2CCN(S(=O)(=O)c3ccc4c(c3)NC(=O)CO4)CC2)CC1` came in with an RP-LC retention time of 664 s.

`COCCN1C(=O)[C@H]2CN(Cc3ccccc3)C[C@H]2C1=O` yielded an RP-LC retention time of 572 s. For `CCn1cc2c3c(cccc31)CN(C(=O)c1ccc(Br)o1)CC2`, the RP-LC retention time is 1050 s.

In the case of `CN(C)C(=O)c1ccc2c(c1)nc(CN1CCN(C(=O)c3ccccc3)CC1)n2C`, the RP-LC retention time was determined as 597 s. As for `COc1ccc(C(O)CN2CCN(c3ccccc3F)CC2)cc1OC` (stereo not given), the RP-LC retention time worked out at 642 s. For `CN(CC1CCOCC1)C(=O)Nc1ccccc1Br`, the RP-LC retention time was determined as 768 s. Compound `Cn1ccc2cc(S(=O)(=O)N3CCC(C(=O)N4CCN(c5ccccc5)CC4)CC3)ccc21` had an RP-LC retention time of 963 s. In turn, `O=C1NC2(CCN(C(=O)Nc3ccc(Cl)cc3)CC2)N=C1c1cccc(F)c1` yielded an RP-LC retention time of 872 s. Under `CC1(C(=O)NCc2ccc(F)cc2)CCCN(S(=O)(=O)c2ccc(F)cc2F)C1` (stereo not given) stands 963 s; under `c1ccc(-c2cccc(-c3ccccn3)n2)nc1`, 608 s; under `Cc1nn(C(=O)CC(C)C)c(C)c1S(=O)(=O)N1CCCC1`, 586 s. `CCOC(=O)c1[nH]c(C)c(CN(Cc2ccco2)C(=O)Nc2ccc(F)cc2)c1C` displayed an RP-LC retention time of 936 s.

On to `COc1cc(NS(=O)(=O)c2ccc(-c3c(C)noc3C)cc2)cc(OC)c1`, for which the RP-LC retention time was 889 s.

The compound `O=C1NC2(CCN(C(=O)c3ccc4c(c3)OCO4)CC2)Nc2cc(Cl)ccc21` registered an RP-LC retention time of 708 s. `COc1ccccc1CC(=O)Nc1cccn2cnnc12` came in with an RP-LC retention time of 674 s. In the case of `O=C(NC1CCCC1)c1nc(Cn2c(=O)oc3ccc(Cl)cc32)no1`, the RP-LC retention time was found to be 931 s. The compound `C=CCNc1ncnc2sc(SC)nc12` showed an RP-LC retention time of 855 s. With `CCc1cc(C(=O)NCc2ccc(F)cc2)nc2ccnn12`, the RP-LC retention time amounted to 909 s. The compound `O=C(c1nnc(-c2ccc(S(=O)(=O)N3CCOCC3)cc2)o1)N1CCC2(CC1)OCCO2` gave an RP-LC retention time of 730 s. In the case of `CN(C)S(=O)(=O)c1ccc2c(c1)N(CC(=O)NCc1cccc(Cl)c1)C(=O)C1CCCCN21` (stereo not given), the RP-LC retention time is 957 s. Consider `Cc1oc(CNC(=O)Nc2ccccc2Cl)nc1C(=O)N1CCCC1`, for which the RP-LC retention time was 680 s. Turning to `CCNC(=O)N1CCc2c([nH]c3ccccc23)C12C(=O)N(C)c1ccccc12` (stereo not given), the RP-LC retention time came out at 756 s. Consider `Cc1ccc(NC(=O)c2cn(C)nc2S(=O)(=O)N2CCSCC2)cc1C`, for which the RP-LC retention time is 987 s.
